According to patent publication US4051237A, “Glycopeptide antibiotics Bu-2231 A and B and process for producing same” (priority 1975, dated 1977):
Like-named read-outs stand apart in the source and are kept apart here.

Tests used:
[1] = test system: Walker 256 carcinosarcoma in ascitic form; conditions: for Effect MST %T/C / MST Days / Survivors Day 5 / Average Weight Change: Exp. #5501; for MST Days: Bu-2231 A and B as copper-free formate salts; for Survivors Day 5: toxicity evaluation; for Average Weight Change: recorded Day 5; for fold greater potency (vs bleomycin): Table II, copper-free formate salts;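 as to all read-outs here: female SD rats bearing intraperitoneally implanted ascites tumor cells, treated ip once a day for 8 days beginning on Day 1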
Lewis Lung carcinoma = conditions: for Effect MST %T/C / MST Days / Survivors Day 5: Exp. #55; for Survivors Day 5: toxicity evaluation
[2] = test system: Bacillus subtilis PCI-219; assay: Paper disc-agar diffusion method
[3] = mice, sc, up to a dose of 50 mg./kg.
Description: The acute toxicity of copper-free Bu-2231 A and B was determined in mice by a single subcutaneous injection. Groups of 3 mice were used for each dose level and the body weight was recorded for 16 days.

[4] = 10 mcg/kg/day ip once daily for 8 days
[5] = 40 mcg/kg/day ip once daily for 8 days
[6] = 160 mcg/kg/day ip once daily for 8 days
[7] = 640 mcg/kg/day ip once daily for 8 days
[8] = 0.5 mg/kg/day ip once daily for 9 days
[9] = 1 mg/kg/day ip once daily for 9 days
[10] = 2 mg/kg/day ip once daily for 9 days
[11] = 4 mg/kg/day ip once daily for 9 days
[12] = 8 mg/kg/day ip once daily for 9 days

Structure (SMILES)	Effect MST %T/C [1, 4] [%]	MST Days [1, 4] [days]	Survivors Day 5 ([1]; 10 mcg/kg/day)	Effect MST %T/C [1, 5] [%]	MST Days [1, 5] [days]	Survivors Day 5 ([1]; 40 mcg/kg/day)	Effect MST %T/C [1, 6] [%]	MST Days [1, 6] [days]	Average Weight Change ([1]; 160 mcg/kg/day)	Survivors Day 5 ([1]; 160 mcg/kg/day)	Effect MST %T/C [1, 7] [%]	MST Days [1, 7] [days]	Survivors Day 5 ([1]; 640 mcg/kg/day)	fold greater potency (vs bleomycin) [1] [fold]	Effect MST %T/C (Lewis Lung carcinoma; [8]) [%]	MST Days (Lewis Lung carcinoma; [8]) [days]	Survivors Day 5 (Lewis Lung carcinoma; 0.5 mg/kg/day)	Effect MST %T/C (Lewis Lung carcinoma; [9]) [%]	MST Days (Lewis Lung carcinoma; [9]) [days]	Survivors Day 5 (Lewis Lung carcinoma; 1 mg/kg/day)	also measured
Cc1c(N)nc([C@H](CC(N)=O)NC[C@H](N)C(N)=O)nc1C(=O)N[C@H](C(=O)N[C@H](C)[C@@H](O)CC(=O)N[C@H](C(=O)NC(O[C@@H]1O[C@@H](C)[C@@H](N)[C@@H](O)[C@H]1O)C(O)c1nc(-c2nc(C(=O)NCCCC(N)CC(=O)NCCCNCCCCN)cs2)cs1)[C@@H](C)O)[C@H](O[C@@H]1O[C@@H](CO)[C@@H](O)[C@H](O)[C@@H]1O[C@H]1O[C@H](CO)[C@@H](O)[C@H](OC(N)=O)[C@@H]1O)c1c[nH]cn1 (stereo partly shown) [Bu-2231 A]	129	9.0	6/6	157	11.0	6/6	179	12.5	+28.8 g.	6/6	250	17.5	6/6	4	120	26.5	6/6	123	27.0	6/6	activity against Lewis Lung Carcinoma (T/C >= 125 criterion) (Lewis Lung carcinoma; 1 mg./kg.): just below an active level; Effect MST %T/C (Lewis Lung carcinoma; [10]): 114%; MST Days (Lewis Lung carcinoma; [10]): 25.0 days; Survivors Day 5 (Lewis Lung carcinoma; 2 mg/kg/day): 6/6; Effect MST %T/C (Lewis Lung carcinoma; [11]): 32%; MST Days (Lewis Lung carcinoma; [11]): 7.0 days; Survivors Day 5 (Lewis Lung carcinoma; 4 mg/kg/day): 6/6; Effect MST %T/C (Lewis Lung carcinoma; [12]): 27%; MST Days (Lewis Lung carcinoma; [12]): 6.0 days; Survivors Day 5 (Lewis Lung carcinoma; 8 mg/kg/day): 6/6; solubility (ethanol): slightly soluble; solubility (methanol): soluble; solubility (other organic solvents): practically insoluble; solubility (water): soluble; activity against B. subtilis PCI-219 [2]: active
Cc1c(N)nc([C@H](CC(N)=O)NC[C@@H](N)C(N)=O)nc1C(=O)N[C@H](C(=O)N[C@H](C)[C@@H](O)CC(=O)N[C@@H](C(=O)NC(O[C@@H]1O[C@@H](C)[C@@H](N)[C@@H](O)[C@H]1O)C(O)c1nc(-c2nc(C(=O)NCCCNCCCCN)cs2)cs1)[C@@H](C)O)C(O[C@@H]1O[C@@H](CO)[C@H](O)[C@@H](O)[C@@H]1O[C@H]1O[C@H](CO)[C@@H](O)[C@@H](OC(N)=O)[C@@H]1O)c1cnc[nH]1 (stereo partly shown) [Bu-2231 B]	114	8.0	6/6	157	11.0	6/6	186	13.0	+36.5 g.	6/6	186	13.0	6/6	4	102	22.5	6/6	134	29.5	6/6	death in acute toxicity test [3]: No death occurred; Average Weight Change ([1]; 10 mcg/kg/day): +36.5 g.; Average Weight Change ([1]; 640 mcg/kg/day): +10.7 g.; Effect MST %T/C (Lewis Lung carcinoma; [10]): 136%; MST Days (Lewis Lung carcinoma; [10]): 30.0 days; Survivors Day 5 (Lewis Lung carcinoma; 2 mg/kg/day): 6/6; Effect MST %T/C (Lewis Lung carcinoma; [11]): 48%; MST Days (Lewis Lung carcinoma; [11]): 10.5 days; Survivors Day 5 (Lewis Lung carcinoma; 4 mg/kg/day): 6/6; Effect MST %T/C (Lewis Lung carcinoma; [12]): 27%; MST Days (Lewis Lung carcinoma; [12]): 6.0 days; Survivors Day 5 (Lewis Lung carcinoma; 8 mg/kg/day): 5/6; activity against Lewis Lung Carcinoma (T/C >= 125 criterion) (Lewis Lung carcinoma; doses of 2 and 1 mg./kg.): active; solubility (ethanol): slightly soluble; solubility (methanol): soluble; solubility (other organic solvents): practically insoluble; solubility (water): soluble; activity against B. subtilis PCI-219 [2]: active
